Data reported in article PMC3914206.

Tests used:
Type in all cases: binding
Design in all cases: KINOMEscan: ABL1(F317L)-phosphorylated / KINOMEscan: ABL1(H396P)-nonphosphorylated / KINOMEscan: ABL1(H396P)-phosphorylated / KINOMEscan: ABL1(M351T)-phosphorylated / KINOMEscan: ABL1(T315I)-phosphorylated / KINOMEscan: ABL1-nonphosphorylated / KINOMEscan: ABL1-phosphorylated / KINOMEscan: ACVR2A / KINOMEscan: ACVR2B / KINOMEscan: ADCK3 / KINOMEscan: ADCK4 / KINOMEscan: AKT1 / KINOMEscan: AKT3 / KINOMEscan: ALK / KINOMEscan: ARK5 / KINOMEscan: AURKA / KINOMEscan: AURKC / KINOMEscan: BIKE / KINOMEscan: BMPR1A / KINOMEscan: BMPR1B / KINOMEscan: BMX / KINOMEscan: BRK / KINOMEscan: BRSK1 / KINOMEscan: BRSK2 / KINOMEscan: CAMK1 / KINOMEscan: CAMK1D / KINOMEscan: CAMK1G / KINOMEscan: CAMK2A / KINOMEscan: CAMK2B / KINOMEscan: AAK1 / KINOMEscan: CAMK2D / KINOMEscan: CAMK2G / KINOMEscan: ABL1(F317I)-nonphosphorylated / KINOMEscan: ABL1(F317I)-phosphorylated / KINOMEscan: ABL1(F317L)-nonphosphorylated: unit: % Ctrl
Conditions in all cases: Compound Concentration 10 µM
panel of 442 kinases [1] = target: T1, panel of 442 kinases (Homo sapiens, UniProt Q9Y243)
T1 construct: purchased KINOMEscan
T1 sequence (Q9Y243 whole entry): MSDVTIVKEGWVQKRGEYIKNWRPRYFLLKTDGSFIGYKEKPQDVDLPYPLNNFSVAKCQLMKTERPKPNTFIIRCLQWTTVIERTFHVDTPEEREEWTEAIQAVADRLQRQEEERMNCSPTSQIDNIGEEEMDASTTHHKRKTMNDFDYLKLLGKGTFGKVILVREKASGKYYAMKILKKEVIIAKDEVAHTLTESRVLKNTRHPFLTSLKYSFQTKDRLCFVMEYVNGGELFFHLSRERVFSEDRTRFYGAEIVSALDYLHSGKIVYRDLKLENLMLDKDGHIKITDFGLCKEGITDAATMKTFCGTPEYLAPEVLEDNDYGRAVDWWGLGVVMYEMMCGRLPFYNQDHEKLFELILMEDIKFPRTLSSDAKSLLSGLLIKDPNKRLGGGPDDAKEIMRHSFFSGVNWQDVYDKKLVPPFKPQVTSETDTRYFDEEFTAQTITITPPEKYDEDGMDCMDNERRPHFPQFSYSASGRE
Description: (§1) We assessed the selectivity of members of this scaffold using the KINOMEscan methodology across a near comprehensive panel of 442 kinases [[18,27]].

panel of 442 kinases [2] = target: T2, panel of 442 kinases (Homo sapiens, UniProt P42336)
T2 construct: purchased KINOMEscan
T2 sequence (P42336 whole entry): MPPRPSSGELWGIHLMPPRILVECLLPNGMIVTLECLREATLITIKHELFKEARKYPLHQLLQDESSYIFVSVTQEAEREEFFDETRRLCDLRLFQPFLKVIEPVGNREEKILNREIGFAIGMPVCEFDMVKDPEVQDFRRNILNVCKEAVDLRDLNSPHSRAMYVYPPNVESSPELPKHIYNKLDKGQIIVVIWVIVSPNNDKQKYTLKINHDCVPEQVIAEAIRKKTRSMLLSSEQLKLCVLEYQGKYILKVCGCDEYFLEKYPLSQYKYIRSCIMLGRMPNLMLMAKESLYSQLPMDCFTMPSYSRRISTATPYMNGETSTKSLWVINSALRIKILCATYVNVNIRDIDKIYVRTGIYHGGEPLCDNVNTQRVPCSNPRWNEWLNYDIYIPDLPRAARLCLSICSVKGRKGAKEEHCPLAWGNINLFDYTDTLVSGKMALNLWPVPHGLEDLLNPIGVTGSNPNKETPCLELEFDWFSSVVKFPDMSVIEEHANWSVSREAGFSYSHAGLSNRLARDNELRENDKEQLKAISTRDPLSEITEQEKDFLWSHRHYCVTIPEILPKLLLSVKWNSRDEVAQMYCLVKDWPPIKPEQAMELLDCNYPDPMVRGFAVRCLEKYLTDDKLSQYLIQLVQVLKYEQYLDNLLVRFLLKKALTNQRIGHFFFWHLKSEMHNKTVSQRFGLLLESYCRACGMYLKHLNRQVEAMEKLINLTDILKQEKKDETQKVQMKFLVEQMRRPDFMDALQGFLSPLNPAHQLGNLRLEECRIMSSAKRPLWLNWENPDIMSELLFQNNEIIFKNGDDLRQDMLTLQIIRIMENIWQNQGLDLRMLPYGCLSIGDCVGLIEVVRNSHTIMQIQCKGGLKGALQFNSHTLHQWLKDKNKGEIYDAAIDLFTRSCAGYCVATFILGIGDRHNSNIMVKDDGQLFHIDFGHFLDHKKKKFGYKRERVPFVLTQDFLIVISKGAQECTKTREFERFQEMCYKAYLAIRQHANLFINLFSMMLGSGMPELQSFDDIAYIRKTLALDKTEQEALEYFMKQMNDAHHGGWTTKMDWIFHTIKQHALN
Description: as §1

panel of 442 kinases [3] = target: T3, panel of 442 kinases (Homo sapiens, UniProt O15530)
T3 construct: purchased KINOMEscan
T3 sequence (O15530 1-556): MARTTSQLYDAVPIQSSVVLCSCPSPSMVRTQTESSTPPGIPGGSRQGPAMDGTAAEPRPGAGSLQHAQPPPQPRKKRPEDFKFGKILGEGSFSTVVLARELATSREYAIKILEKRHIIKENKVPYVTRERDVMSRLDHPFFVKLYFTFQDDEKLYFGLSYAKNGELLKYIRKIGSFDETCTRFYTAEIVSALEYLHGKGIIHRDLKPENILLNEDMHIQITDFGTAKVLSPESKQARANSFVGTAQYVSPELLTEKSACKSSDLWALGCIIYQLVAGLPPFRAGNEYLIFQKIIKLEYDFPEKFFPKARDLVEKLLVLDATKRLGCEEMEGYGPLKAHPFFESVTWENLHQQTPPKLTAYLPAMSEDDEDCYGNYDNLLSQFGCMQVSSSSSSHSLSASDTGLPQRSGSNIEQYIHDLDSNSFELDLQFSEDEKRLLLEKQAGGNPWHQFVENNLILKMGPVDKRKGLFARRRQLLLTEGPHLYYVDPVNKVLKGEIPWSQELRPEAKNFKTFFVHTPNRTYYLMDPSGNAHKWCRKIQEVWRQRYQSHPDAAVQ
Description: as §1

SMILES | KINOMEscan: AKT3 (panel of 442 kinases [1]) | KINOMEscan: PIK3CA (panel of 442 kinases [2]) | KINOMEscan: PDPK1 (panel of 442 kinases [3])
COc1cc(C(=O)N2CCC(N3CCN(C)CC3)CC2)ccc1Nc1ncc2c(n1)N(C)c1ccccc1C(=O)N2C [15 (LRRK2-IN-1)] | 100 | 74 | 100
COc1cc(C(=O)N2CCC(N3CCN(C)CC3)CC2)ccc1Nc1ncc2c(n1)N(C1CCCC1)c1ccccc1C(=O)N2C [Compound 25, 11-cyclopentyl-2-((2-methoxy-4-(4-(4-methylpiperazin-1-yl)piperidine-1-carbonyl)phenyl)amino)-5-methyl-5H-benzo[e]pyrimido[5,4-b][1,4]diazepin-6(11H)-one] | 100 | 100 | 98
CCOc1cc(C(=O)N2CCC(N3CCN(C)CC3)CC2)ccc1Nc1ncc2c(n1)N(C1CCCC1)c1ccccc1C(=O)N2C [Compound 26] | 84 | 100 | 99
